# Results taken from patent US11739074B2, “Ras inhibitors” (Revolution Medicines, Inc., priority 2019, dated 2023).
# Where two headings read alike, the source gives them in different places.
# Legend:
# [1] = target: KRAS G13D (Homo sapiens, UniProt P01116+P62937, G13D); assay: Ras-Raf disruption/FRET/MOA assay, KRAS G13D; format: biochemical
# Summary of the method: (§1)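 In this biochemical mechanism-of-action format, 12.5 nM GMPPNP-bound KRAS and 50 nM BRAF^RBD are mixed with 25 μM Cyclophilin A and dilution series of compound. After a 3 h incubation, tag-directed FRET antibodies report remaining KRAS:RAF association.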
# [2] = tested on: AsPC-1 (K-Ras G12D); assay: CellTiter-Glo cell viability assay, AsPC-1; format: cell-based; settings: Homo sapiens, ASPC1, 120 h
# Summary of the method: (§2)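 Cells already in plates received compound by direct dispensing. After incubation to day 5, plates sat at room temperature roughly 30 minutes, then ATP-based luminescence was measured and values derived from a four-parameter fit of DMSO-normalized data.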
# [3] = tested on: NCI-H358 (K-Ras G12C); assay: CellTiter-Glo cell viability assay, H358; format: cell-based; settings: Homo sapiens, NCI-H358, 120 h
# Summary of the method: as §2
# [4] = target: KRAS G13C (Homo sapiens, UniProt P01116+P62937, G13C); assay: Ras-Raf disruption/FRET/MOA assay, KRAS G13C; format: biochemical
# Sequence of KRAS G13C (P01116 1-169 isoform P01116-2 G13C limits assumed): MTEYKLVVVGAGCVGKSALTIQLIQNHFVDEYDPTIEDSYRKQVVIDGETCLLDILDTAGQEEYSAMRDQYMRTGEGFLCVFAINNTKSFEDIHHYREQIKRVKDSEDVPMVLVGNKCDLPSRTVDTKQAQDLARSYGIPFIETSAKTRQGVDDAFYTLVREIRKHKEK
# Sequence of KRAS G13C (P62937 whole entry): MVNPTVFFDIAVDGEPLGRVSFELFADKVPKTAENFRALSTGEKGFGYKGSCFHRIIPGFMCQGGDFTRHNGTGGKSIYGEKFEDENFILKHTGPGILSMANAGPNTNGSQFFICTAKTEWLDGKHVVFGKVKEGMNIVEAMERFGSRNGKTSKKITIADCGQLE
# Summary of the method: as §1
# [5] = tested on: AsPC-1 (K-Ras G12D); assay: Potency assay: pERK in AsPC-1 cells; format: cell-based; settings: Homo sapiens
# [6] = target: T1, NRAS G12C (Homo sapiens, UniProt P01111+P62937, G12C); assay: Ras-Raf disruption/FRET/MOA assay, NRAS G12C; format: biochemical
# T1 construct: His6
# T1 sequence (P01111 whole entry G12C): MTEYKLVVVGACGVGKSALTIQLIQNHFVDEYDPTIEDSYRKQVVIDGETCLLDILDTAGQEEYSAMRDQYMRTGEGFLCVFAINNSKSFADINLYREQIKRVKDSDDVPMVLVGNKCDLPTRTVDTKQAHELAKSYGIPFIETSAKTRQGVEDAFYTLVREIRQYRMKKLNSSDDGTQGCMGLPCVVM
# T1 sequence (P62937 whole entry): as the sequence (P62937 whole entry) above
# Summary of the method: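 Disruption of Ras:RAF binding was read as a drop in TR-FRET ratio versus DMSO controls. The buffer was 25 mM HEPES pH 7.3, 0.002% Tween20, 0.1% BSA, 100 mM NaCl and 5 mM MgCl2. Compounds were tested as a 10-point 3-fold dilution series from 30 μM. Detection used 10 nM anti-His Eu-W1024 and 50 nM anti-GST allophycocyanin.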
# [7] = target: KRAS G12C (Homo sapiens, UniProt P01116+P62937, G12C); assay: Ras-Raf disruption/FRET/MOA assay, KRAS G12C; format: biochemical
# Sequence of KRAS G12C (P01116 1-169 isoform P01116-2 G12C limits assumed): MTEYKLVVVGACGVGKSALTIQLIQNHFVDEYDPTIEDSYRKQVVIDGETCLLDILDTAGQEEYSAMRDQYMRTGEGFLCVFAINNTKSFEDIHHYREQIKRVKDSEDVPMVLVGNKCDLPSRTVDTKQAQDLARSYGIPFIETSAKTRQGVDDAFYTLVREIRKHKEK
# Sequence of KRAS G12C (P62937 whole entry): as the sequence (P62937 whole entry) above
# Summary of the method: as §1
# [8] = target: KRAS G12D (Homo sapiens, UniProt P01116+P62937, G12D); assay: Ras-Raf disruption/FRET/MOA assay, KRAS G12D; format: biochemical
# Sequence of KRAS G12D (P01116 1-169 isoform P01116-2 G12D limits assumed): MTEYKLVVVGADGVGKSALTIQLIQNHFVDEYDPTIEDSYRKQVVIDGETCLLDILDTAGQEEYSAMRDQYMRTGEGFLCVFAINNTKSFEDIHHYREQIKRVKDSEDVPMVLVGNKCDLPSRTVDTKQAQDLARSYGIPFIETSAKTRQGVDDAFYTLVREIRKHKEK
# Sequence of KRAS G12D (P62937 whole entry): as the sequence (P62937 whole entry) above
# Summary of the method: as §1
# [9] = target: KRAS G12S (Homo sapiens, UniProt P01116+P62937, G12S); assay: Ras-Raf disruption/FRET/MOA assay, KRAS G12S; format: biochemical
# Sequence of KRAS G12S (P01116 1-169 isoform P01116-2 G12S limits assumed): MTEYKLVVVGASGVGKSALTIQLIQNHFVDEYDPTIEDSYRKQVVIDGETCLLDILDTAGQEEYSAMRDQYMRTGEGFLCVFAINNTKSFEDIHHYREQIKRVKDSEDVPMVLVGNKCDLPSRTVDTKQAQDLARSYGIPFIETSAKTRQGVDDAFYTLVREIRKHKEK
# Sequence of KRAS G12S (P62937 whole entry): as the sequence (P62937 whole entry) above
# Summary of the method: as §1
# [10] = target: KRAS WT (Homo sapiens, UniProt P01116+P62937); assay: Ras-Raf disruption/FRET/MOA assay, KRAS WT; format: biochemical
# Sequence of KRAS WT (P01116 1-169 isoform P01116-2 limits assumed): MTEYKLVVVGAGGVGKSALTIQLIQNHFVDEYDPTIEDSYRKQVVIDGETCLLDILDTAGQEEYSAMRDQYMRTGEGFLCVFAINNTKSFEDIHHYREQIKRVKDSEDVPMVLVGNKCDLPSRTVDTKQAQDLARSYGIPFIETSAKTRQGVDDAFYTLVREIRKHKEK
# Sequence of KRAS WT (P62937 whole entry): as the sequence (P62937 whole entry) above
# Summary of the method: as §1
# [11] = target: KRAS G12V (Homo sapiens, UniProt P01116+P62937, G12V); assay: Ras-Raf disruption/FRET/MOA assay, KRAS G12V; format: biochemical
# Sequence of KRAS G12V (P01116 1-169 isoform P01116-2 G12V limits assumed): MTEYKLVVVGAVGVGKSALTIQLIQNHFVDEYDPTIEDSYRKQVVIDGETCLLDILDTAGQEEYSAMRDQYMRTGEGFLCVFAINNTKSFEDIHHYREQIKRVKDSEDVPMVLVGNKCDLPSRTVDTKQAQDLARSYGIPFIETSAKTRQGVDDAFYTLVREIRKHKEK
# Sequence of KRAS G12V (P62937 whole entry): as the sequence (P62937 whole entry) above
# Summary of the method: as §1
# [12] = read-out: AsPC-1 Cell Viability IC50, AsPC-1, K-Ras G12D, 5-day treatment
# [13] = read-out: H358 Cell Viability IC50, NCI-H358, K-Ras G12C, 5-day treatment
# [14] = ASPC1, read-out: pERK EC50 (AsPC-1 KRAS G12D)
# [15] = NRAS G12C FRET data IC50, NRAS G12C
# [16] = disruption of BRAF RBD binding, with Cyclophilin A, read-out: KRAS G13D FRET IC50
# [17] = read-out: AsPC-1 Cell Viability IC50
# [18] = read-out: H358 Cell Viability IC50
# [19] = disruption of BRAF RBD binding, with Cyclophilin A, read-out: KRAS G13C FRET IC50
# [20] = NRAS G12C, read-out: NRAS G12C FRET data IC50
# [21] = disruption of BRAF RBD binding, with Cyclophilin A, read-out: KRAS G12C FRET IC50
# [22] = disruption of BRAF RBD binding, with Cyclophilin A, read-out: KRAS G12D FRET IC50
# [23] = disruption of BRAF RBD binding, with Cyclophilin A, read-out: KRAS G12S FRET IC50
# [24] = disruption of BRAF RBD binding, with Cyclophilin A, read-out: KRAS WT FRET IC50
# [25] = disruption of BRAF RBD binding, with Cyclophilin A, read-out: KRAS G12V FRET IC50
# [26] = AsPC-1, K-Ras G12D, 5-day treatment, read-out: AsPC-1 Cell Viability IC50
# [27] = NCI-H358, K-Ras G12C, 5-day treatment, read-out: H358 Cell Viability IC50
# [28] = ASPC1, AsPC-1 cells, K-Ras G12D, read-out: pERK EC50 (AsPC-1 KRAS G12D)
# Sequence of KRAS G13D (P01116 1-169 isoform P01116-2 G13D limits assumed): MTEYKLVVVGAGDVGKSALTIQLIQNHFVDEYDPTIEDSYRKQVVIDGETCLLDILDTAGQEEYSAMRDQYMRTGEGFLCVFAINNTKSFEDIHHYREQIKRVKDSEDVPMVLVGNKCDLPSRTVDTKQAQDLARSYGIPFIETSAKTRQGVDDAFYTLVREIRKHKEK
# Sequence of KRAS G13D (P62937 whole entry): as the sequence (P62937 whole entry) above
Compound,IC50 [1] [nM],"IC50 [2, 12] [nM]","IC50 [3, 13] [nM]",IC50 [4] [nM],"EC50 [5, 14] [µM]","IC50 [6, 15] [nM]",IC50 [7] [nM],IC50 [8] [nM],IC50 [9] [nM],IC50 [10] [nM],IC50 [11] [nM],"IC50 [1, 16] [nM]","IC50 [2, 17] [nM]","IC50 [4, 19] [nM]","IC50 [6, 20] [nM]","IC50 [7, 21] [nM]","IC50 [8, 22] [nM]","IC50 [9, 23] [nM]","IC50 [10, 24] [nM]","IC50 [11, 25] [nM]",further results
CCn1c(-c2cnccc2COC)c2c3cc(ccc31)-c1cc(O)cc(c1)C[C@H](NC(=O)[C@H](C(C)C)N(C)C(=O)CN(C)C(=O)[C@H]1CN1Cc1ccccc1)C(=O)N1CCC[C@H](N1)C(=O)OCC(C)(C)C2 (some centres unmarked) [Compound 9],100 to 1000,1000 to 10000,10 to 100,100 to 1000,< 5,10 to 100,10 to 100,1000 to 10000,100 to 1000,100 to 1000,100 to 1000,–,–,–,–,–,–,–,–,–,–
CCn1c(-c2cnccc2COC)c2c3cc(ccc31)-c1cc(O)cc(c1)C[C@H](NC(=O)[C@H](C(C)C)N(C)C(=O)CN(C)C(=O)[C@@H]1CN1Cc1ccccc1)C(=O)N1CCC[C@H](N1)C(=O)OCC(C)(C)C2 (some centres unmarked) [Compound 10],1000 to 10000,1000 to 10000,10 to 100,100 to 1000,< 5,10 to 100,10 to 100,1000 to 10000,10 to 100,100 to 1000,100 to 1000,–,–,–,–,–,–,–,–,–,–
CCn1c(-c2cnccc2COC)c2c3cc(ccc31)-c1cc(O)cc(c1)C[C@H](NC(=O)[C@H](C(C)C)N(C)C(=O)CN(C)C(=O)C1CN1S(C)(=O)=O)C(=O)N1CCC[C@H](N1)C(=O)OCC(C)(C)C2 (some centres unmarked) [Compound 13],–,–,–,–,< 5,–,–,–,–,–,–,100 to 1000,1000 to 10000,10 to 100,10 to 100,10 to 100,100 to 1000,10 to 100,10 to 100,10 to 100,"IC50 [3, 18]: 10 to 100 nM"
CCn1c(-c2cnccc2COC)c2c3cc(ccc31)-c1cc(O)cc(c1)C[C@H](NC(=O)[C@H](C(C)C)N(C)C(=O)CN(C)C(=O)C1CN1C(C)=O)C(=O)N1CCC[C@H](N1)C(=O)OCC(C)(C)C2 (some centres unmarked) [Compound 14],–,–,–,–,< 5,–,–,–,–,–,–,100 to 1000,1000 to 10000,10 to 100,10 to 100,10 to 100,100 to 1000,100 to 1000,100 to 1000,100 to 1000,"IC50 [3, 18]: 100 to 1000 nM"
CCn1c(-c2cnccc2COC)c2c3cc(ccc31)-c1cc(O)cc(c1)C[C@H](NC(=O)[C@H](C(C)C)N(C)C(=O)CN(C)C(=O)[C@@H]1[C@H](C(=O)OC)N1[S@@+]([O-])C(C)(C)C)C(=O)N1CCC[C@H](N1)C(=O)OCC(C)(C)C2 (some centres unmarked) [Compound 50],–,–,–,–,< 5,–,–,–,–,–,–,100 to 1000,> 10000,10 to 100,10 to 100,10 to 100,100 to 1000,10 to 100,100 to 1000,10 to 100,"IC50 [3, 18]: 100 to 1000 nM"
CCn1c(-c2cnccc2COC)c2c3cc(ccc31)-c1cc(O)cc(c1)C[C@H](NC(=O)[C@H](C(C)C)N(C)C(=O)CN(C)C(=O)[C@H]1[C@@H](C3CC3)N1[S@+]([O-])C(C)(C)C)C(=O)N1CCC[C@H](N1)C(=O)OCC(C)(C)C2 (some centres unmarked) [Compound 52],–,–,–,–,< 5,–,–,–,–,–,–,100 to 1000,1000 to 10000,100 to 1000,10 to 100,10 to 100,100 to 1000,10 to 100,10 to 100,100 to 1000,"IC50 [3, 18]: 100 to 1000 nM"
CCn1c(-c2cccnc2[C@H](C)OC)c2c3cc(ccc31)-c1cc(O)cc(c1)C[C@H](NC(=O)[C@H](C1CCCC1)N(C)C(=O)[C@H]1CCN(C(=O)[C@H]3CN3)C1)C(=O)N1CCC[C@H](N1)C(=O)OCC(C)(C)C2 [Compound 58],–,–,–,–,–,–,–,–,–,–,–,10 to 100,–,10 to 100,< 10,< 10,100 to 1000,10 to 100,10 to 100,10 to 100,"IC50 [2, 26]: 100 to 1000 nM; IC50 [3, 27]: < 10 nM; EC50 [5, 28]: < 5 µM"
CCn1c(-c2cccnc2[C@H](C)OC)c2c3cc(ccc31)-c1cc(O)cc(c1)C[C@H](NC(=O)[C@H](C(C)C)N(C)C(=O)CN(C)C(=O)[C@@H]1CN1)C(=O)N1CCC[C@H](N1)C(=O)OCC(C)(C)C2 [Compound 150],10 to 100,100 to 1000,< 10,10 to 100,< 5,< 10,< 10,10 to 100,10 to 100,10 to 100,10 to 100,–,–,–,–,–,–,–,–,–,–
CCn1c(-c2cccnc2[C@H](C)OC)c2c3cc(ccc31)-c1cc(O)cc(c1)C[C@H](NC(=O)[C@H](C(C)C)N1CC[C@@]3(CCCN(C(=O)[C@@H]4CN4)C3)C1=O)C(=O)N1CCC[C@H](N1)C(=O)OCC(C)(C)C2 [Compound 191],–,–,–,–,–,–,–,–,–,–,–,100 to 1000,–,10 to 100,10 to 100,10 to 100,100 to 1000,10 to 100,10 to 100,100 to 1000,"IC50 [2, 26]: 1000 to 10000 nM; IC50 [3, 27]: 10 to 100 nM; EC50 [5, 28]: < 5 µM"
"CCn1c(-c2cnccc2COC)c2c3cc(ccc31)-c1cc(O)cc(c1)C[C@H](NC(=O)[C@H](C(C)C)N(C)C(=O)CN(C)C(=O)[C@H]1CN1)C(=O)N1CCC[C@H](N1)C(=O)OCC(C)(C)C2 [Example 7, (2R)—N-(2-(((2S)-1-(((6^3S,4S)-1^1-ethyl-2^5-hydroxy-1^2-(4-(methoxymethyl)pyridin-3-yl)-10,10-dimethyl-5,7-dioxo-6^1,6^2,6^3,6^4,6^5,6^6-hexahydro-1^1H-8-oxa-1(5,3)-indola-6(1,3)-pyridazina-2(1,3)-benzenacycloundecaphane-4-yl)amino)-3-methyl-1-oxobutan-2-yl)(methyl)amino)-2-oxoethyl)-N-methylaziridine-2-carboxamide]",100 to 1000,100 to 1000,10 to 100,10 to 100,< 5,< 10,< 10,100 to 1000,10 to 100,100 to 1000,100 to 1000,–,–,–,–,–,–,–,–,–,–
